The values that follow come from patent publication US20210122746A1, “FEBRIFUGINE DERIVATIVES” (BRISTOL-MYERS SQUIBB COMPANY, priority 2017, published 2021).

Counter-ions that a name gives are not always drawn. Where only a bound is given, the exact number is not on record here.

The target of this experiment is T1, human ProRS (prolyl tRNA synthetase moiety of glutamyl prolyl tRNA synthetase) (Homo sapiens, UniProt P07814).
T1 construct: The prolyl tRNA synthetase moiety (ProRS) in the cDNA of glutamyl prolyl tRNA synthetase was subcloned; 6xHis (N, cleaved yes); made in house; host or cells: E. coli BL21 (DE3)
T1 sequence (P07814 1007-1512 limits assumed): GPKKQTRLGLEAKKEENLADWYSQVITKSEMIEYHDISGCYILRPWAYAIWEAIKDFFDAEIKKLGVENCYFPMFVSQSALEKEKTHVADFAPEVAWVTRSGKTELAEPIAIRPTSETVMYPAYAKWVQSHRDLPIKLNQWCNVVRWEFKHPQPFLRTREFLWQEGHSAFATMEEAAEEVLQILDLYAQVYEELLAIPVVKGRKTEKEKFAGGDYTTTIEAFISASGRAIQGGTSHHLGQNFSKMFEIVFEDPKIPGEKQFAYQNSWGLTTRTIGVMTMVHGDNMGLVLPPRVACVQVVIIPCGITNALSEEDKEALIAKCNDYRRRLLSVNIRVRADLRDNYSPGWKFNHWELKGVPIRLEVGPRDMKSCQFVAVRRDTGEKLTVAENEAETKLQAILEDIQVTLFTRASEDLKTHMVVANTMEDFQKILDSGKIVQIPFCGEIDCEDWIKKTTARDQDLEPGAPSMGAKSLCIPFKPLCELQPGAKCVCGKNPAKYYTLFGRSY
The experiment can be described thus: Assay for inhibitors of prolyl tRNA synthetase activity (ProRS assay, labeled proline incorporation). In kind it is biochemical. The note with it: ProRS 20 nM, compounds 10 μM to 0.5 nM, 10 min at 37° C.; read-out: EPR IC50. The text has this:
In order to establish the activities of the compounds highlighted above, we determined extent of inhibition of prolyl tRNA synthetase activity in dose response curves to obtain IC50 values.
The prolyl tRNA synthetase moiety (ProRS) in the cDNA of glutamyl prolyl tRNA synthetase was subcloned, tagged with a single biotin, purified and used in the assay. Briefly, human ProRS with a 6× N-terminal His tag in pET28N with TVMV BioP was transformed in E. coli BL21 (DE3) cells, selected, overexpressed and purified using a Ni Seph 6 FF XK 16/20 column in the first stage. Ni-NTA eluates were pooled and treated with TVMV protease, and biotinylated using d-Biotin, MgCl2, ATP and the BirA enzyme. This was rerun through a Ni column as before. The eluates were further enriched and purified using membrane ultrafiltration and a SuperDex 200 XK 16/60 column, and peak fractions were confirmed by SDS-PAGE prior to protein amount determination, aliquoting and storage at −80° C.
ProRS assay was performed in 96 well plates in a final reaction volume of 20 μl, using staggered additions of Tris-Cl (pH 7.5, 60 mM), dithiothreitol (2 mM), ATP (5 mM, pH 7.0), MgCl2 6 mM), ProRS (20 nM, with pre-determined active fraction range) and bovine tRNA (20 μg). Controls and compounds, at various concentrations (10 μM to 0.5 nM), were incubated on ice with enzyme mix for 15 min followed by addition of proline (non-labeled and labeled, 3.96 and 1.04 μM (1 μCi) respectively) to initiate the reaction. Reaction was carried out for 10 min at 37° C. and terminated by addition of TCA (10%, 100 μl). Reaction mix was collected on a Whatman GF/B filter using a vacuum filtration manifold. This filter was washed 3 times with 5% TCA followed by 2 washes with ethanol, air dried, and read using a liquid scintillation counter (TopCount NXT) using MicroScint O. IC50 values were calculated and analyzed using ToolSet (4-parameter plot) and depicted herein.
For `Cc1cc(C(C)C)cc2c(=O)n(CC(=O)C[C@@H]3CCCCN3)cnc12` [Example 18, (S)-6-isopropyl-8-methyl-3-{2-oxo-3-[piperidin-2-yl]propyl}quinazolin-4(3H)-one hydrochloride], the IC50 turned out to be 140 nM. As to `Cc1cc(C(F)(F)F)cn2c(=O)c(NC(=O)C[C@H]3NCCC[C@@H]3O)cnc12` [Example 41, 2-((2R,3S)-3-hydroxypiperidin-2-yl)-N-(9-methyl-4-oxo-7-(trifluoromethyl)-4H-pyrido[1,2-a]pyrimidin-3-yl)acetamide 2,2,2-trifluoroacetic acid], the IC50 was more than 8000 nM.

For the molecule `O=C(C[C@@H]1CCCCN1)Cn1cnc2ccncc2c1=O` [Example 20, (S)-3-{2-oxo-3-[piperidin-2-yl-propyl-pyrido(4,3-d)]}pyrimidin-4(3H)-one-dihydrochloride], the IC50 worked out at 60 nM. For the molecule `Cc1cc(-c2cccc(C(F)(F)F)c2)nc2c(=O)n(C[C@@H](O)C[C@H]3NCCC[C@@H]3O)cnc12` [Example 28, 3-{(2S)-2-hydroxy-3-[(2R,3S)-3-hydroxy-2-piperidyl]propyl}-8-methyl-6-[3-(trifluoromethyl)phenyl]pyrido[3,2-d]pyrimidin-4-one;dihydrochloride], the IC50 amounted to 27 nM. As to `Cc1cc(-c2cccc(C(F)(F)F)c2)nc2c(=O)n(CC(=O)C[C@H]3NCCC[C@@H]3O)cnc12` [Example 15, 3-{3-[(2R,3S)-3-hydroxypiperidin-2-yl]-2-oxopropyl}-8-methyl-6-(3-(trifluoromethyl)phenyl)pyrido[3,2-d]pyrimidin-4(3H)-one bis(2,2,2-trifluoroacetic acid)], the IC50 was 8 nM. `O=c1c2nc(-c3cccnc3)ccc2ncn1C[C@@H](O)C[C@H]1NCCC[C@@H]1O` [Example 29, 3-{(S)-2-hydroxy-3-[(2R,3S)-3-hydroxypiperidin-2-yl]propyl}-6-(pyridin-3-yl)pyrido[3,2-d]pyrimidin-4(3H)-one 2,2,2-trifluoroacetate]: the IC50 was determined as 103 nM. For `Cc1cc(-c2cccc(Cl)c2)nc2c(=O)n(C[C@@H](O)C[C@H]3NCCC[C@@H]3O)cnc12` [Example 33, 6-(3-chlorophenyl)-3-{(S)-2-hydroxy-3-[(2R,3S)-3-hydroxypiperidin-2-yl]propyl}-8-methylpyrido[3,2-d]pyrimidin-4(3H)-one dihydrochloride], the concentration for half-maximal inhibition (IC50) is 23 nM. Turning to `Cc1cc(-c2cccnc2)nc2c(=O)n(C[C@@H](O)C[C@H]3NCCC[C@@H]3O)cnc12` [Example 34, 3-{(S)-2-hydroxy-3-[(2R,3S)-3-hydroxypiperidin-2-yl]propyl}-8-methyl-6-(pyridin-3-yl)pyrido[3,2-d]pyrimidin-4(3H)-one trihydrochloride], the 50% inhibitory concentration (IC50) amounted to 290 nM. For `Cc1cc(C)c2ncn(C[C@@H](O)C[C@H]3NCC[C@@H]3O)c(=O)c2n1` [Example 37, 3-{(S)-2-hydroxy-3-[(2R,3S)-3-hydroxypyrrolidin-2-yl]propyl}-6,8-dimethylpyrido(3,2-d)pyrimidin-4(3H)-one bis (2,2,2-trifluoroacetic acid)], the IC50 was more than 10000 nM. Take `Cc1cc(-c2cccc(F)c2)cn2c(=O)c(NC(=O)C[C@H]3NCCC[C@@H]3O)cnc12` [Example 40, N-(7-(3-fluorophenyl)-9-methyl-4-oxo-4H-pyrido[1,2-a]pyrimidin-3-yl)-2-((2R,3S)-3-hydroxypiperidin-2-yl)acetamide 2,2,2-trifluoroacetic acid]: the IC50 was 2730 nM. Under `O=C(C[C@H]1NCCC[C@@H]1O)Cn1cnc2ccc(-c3cccc(C(F)(F)F)c3)nc2c1=O` [Example 6, 3-{3-[(2R,3S)-3-Hydroxypiperidin-2-yl]-2-oxopropyl}-6-[3-(trifluoromethyl)phenyl]pyrido[3,2-d]pyrimidin-4(3H)-one dihydrochloride] stands 23 nM. As to `Cc1cc(-c2cccc(Cl)c2)nc2c(=O)n(CC(=O)C[C@H]3NCCC[C@@H]3O)cnc12` [Example 16, 6-(3-chlorophenyl)-3-{3-[(2R,3S)-3-hydroxypiperidin-2-yl]-2-oxopropyl}-8-methylpyrido[3,2-d]pyrimidin-4(3H)-one bis(2,2,2-trifluoroacetate)], the IC50 was determined as 3 nM. For `Cc1cc(C)c2ncn(C[C@@H](O)C[C@@H]3CCCCN3)c(=O)c2n1` [Example 36, 3-{(S)-2-hydroxy-3-[(S)-piperidin-2-yl]propyl}-6,8-dimethylpyrido[3,2-d]pyrimidin-4(3H)-one dihydrochloride], the IC50 is 2180 nM. As for `Cc1cc(C(F)(F)F)nc2c(=O)n(CC(=O)C[C@H]3NCCC[C@@H]3O)cnc12` [Example 13, 3-{3-[(2R,3S)-3-hydroxypiperidin-2-yl]-2-oxopropyl}-8-methyl-6-(trifluoromethyl)pyrido[3,2-d]pyrimidin-4(3H)-one dihydrochloride], the IC50 turned out to be 17 nM. Under `Cc1cc(C2CC2)nc2c(=O)n(C[C@@H](O)C[C@H]3NCCC[C@@H]3O)cnc12` [Example 30, 6-cyclopropyl-3-{(S)-2-hydroxy-3-[(2R,3S)-3-hydroxypiperidin-2-yl]propyl}-8-methylpyrido[3,2-d]pyrimidin-4(3H)-one dihydrochloride] stands 425 nM. The figure for `O=c1c2cnccc2ncn1C[C@@H](O)C[C@H]1NCCC[C@@H]1O` [Example 26, 3-{(S)-2-Hydroxy-3-[(2R,3S)-3-hydroxypiperidin-2-yl]propyl}pyrido[4,3-d]pyrimidin-4(3H)-one dihydrochloride] is 80 nM. Under `O=C(C[C@H]1NCCC[C@@H]1O)Cn1cnc2ccc(-c3ccc(F)c(F)c3)nc2c1=O` [Example 9, 6-(3,4-difluorophenyl)-3-{3-[(2R,3S)-3-hydroxypiperidin-2-yl]-2-oxopropyl}pyrido[3,2-d]pyrimidin-4(3H)-one dihydrochloride] stands 8 nM; under `Cc1cc(C(F)(F)F)cc2c(=O)n(CC(=O)C[C@@H]3CCCCN3)cnc12` [Example 19, (S)-8-methyl-3-{2-oxo-3-[piperidin-2-yl]propyl}-6-(trifluoromethyl)quinazolin-4(3H)-one 2,2,2-trifluoroacetate], 159 nM; under `O=c1c2nc(-c3ccc(F)c(F)c3)ccc2ncn1C[C@@H](O)C[C@H]1NCCC[C@@H]1O` [Example 25, 6-(3,4-Difluorophenyl)-3-{(S)-2-hydroxy-3-[(2R,3S)-3-hydroxypiperidin-2-yl]propyl}pyrido[3,2-d]pyrimidin-4(3H)-one dihydrochloride], 25 nM. Turning to `O=c1c2nc(-c3cccc(F)c3)ccc2ncn1C[C@@H](O)CC1NCCC[C@@H]1O` (stereo partly drawn) [Example 24, 6-(3-Fluorophenyl)-3-{(2S)-2-hydroxy-3-[(3S)-3-hydroxypiperidin-2-yl]propyl}pyrido[3,2-d]pyrimidin-4(3H)-one dihydrochloride], the IC50 was determined as 8 nM. Take `Cc1cc(C(C)C)cc2c(=O)n(C[C@@H](O)C[C@@H]3CCCCN3)cnc12` [Example 35, 3-{(S)-2-hydroxy-3-[(S)-piperidin-2-yl]-propyl}-6-isopropyl-8-methylquinazolin-4(3H)-one hydrochloride]: the IC50 turned out to be 1390 nM. For `Cc1cc(-c2cccc(F)c2)nc2c(=O)n(C[C@@H](O)C[C@H]3NCCC[C@@H]3O)cnc12` [Example 32, 6-{(3-fluorophenyl)-3-[(S)-2-hydroxy-3-(2R,3S)-3-hydroxypiperidin-2-yl-propyl)-8-methylpyrido[3,2-d]}pyrimidin-4(3H)-one dihydrochloride], the concentration for half-maximal inhibition (IC50) came to 79 nM. With `O=c1c2nc(-c3cccc(Cl)c3)ccc2ncn1C[C@@H](O)C[C@H]1NCCC[C@@H]1O` [Example 22, 6-(3-Chlorophenyl)-3-{(S)-2-hydroxy-3-[(2R,3S)-3-hydroxypiperidin-2-yl]propyl}pyrido[3,2-d]pyrimidin-4(3H)-one dihydrochloride], the IC50 was determined as 20 nM.
